16 compounds from PubChem BioAssay AID248 (DTP/NCI, 2004) can be followed below.

In this test the test system is L1210 leukemia ip in BDF1 mice, survival T/C. Description: NCI In Vivo Anticancer Drug Screen. Data for tumor model L1210 Leukemia (intraperitoneal) in B6D2F1 (BDF1) mice. The conditions noted are these: endpoint: mean survival time, higher = longer survival. An outline of the steps:
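In this screen, tumor-bearing mice given compound are compared to those given vehicle, and their survival values are reported as a treated-to-control quotient.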

The mark [1] stands for this setting: dose: 75.0 mg/kg/injection, schedule: Q01DX001 (ip), vehicle: saline.
Setting [2] is: dose: 150.0 mg/kg/injection, schedule: Q01DX001 (ip), vehicle: saline.
[3] abbreviates: dose: 300.0 mg/kg/injection, schedule: Q01DX001 (ip), vehicle: saline.
[4] abbreviates: dose: 100.0 mg/kg/injection, schedule: Q01DX009 (ip), vehicle: saline with Tween-80.
Where [5] appears, read: dose: 100.0 mg/kg/injection, schedule: Q04DX003 (ip), vehicle: saline with Tween-80.
[6] abbreviates: dose: 200.0 mg/kg/injection, schedule: Q04DX003 (ip), vehicle: saline with Tween-80.
The mark [7] stands for this setting: dose: 400.0 mg/kg/injection, schedule: Q04DX003 (ip), vehicle: saline with Tween-80.
Setting [8] is: dose: 100.0 mg/kg/injection, schedule: Q04DX003 (ip), vehicle: Klucel (hydroxypropylcellulose) (HPC).
Where [9] appears, read: dose: 200.0 mg/kg/injection, schedule: Q04DX003 (ip), vehicle: Klucel (hydroxypropylcellulose) (HPC).
[10] abbreviates: dose: 400.0 mg/kg/injection, schedule: Q04DX003 (ip), vehicle: Klucel (hydroxypropylcellulose) (HPC).

Toxic doses and inconclusive results are not listed. Peptide text beside a SMILES is read from it. * marks the point of attachment. Boc = CC(C)(C)OC(=O)*

Turning to `CSc1ncnc2n[nH]c(Br)c12`, the T/C (dose: 100.0 mg/kg/injection, schedule: Q01DX005 (ip), vehicle: saline) was 93 % of control.
Regarding `COC(=O)CNC(=O)C(CC(C)C)NC(=O)C(CC(C)C)NC(=O)OC(C)(C)C` (stereo not drawn) (Boc-Leu-Leu-Gly-OMe; configuration not given here), the T/C was 106 % of control under setting [1], 98 % of control under setting [2] and 98 % of control under setting [3].
On to `O=C(O)c1ccc(Br)c2ccccc12`, for which the T/C is 95 % of control (dose: 75.0 mg/kg/injection, schedule: Q01DX001 (ip), vehicle: carboxymethylcellulose (CMC)) and 98 % of control (dose: 150.0 mg/kg/injection, schedule: Q01DX001 (ip), vehicle: carboxymethylcellulose (CMC)).
Turning to `CCCCCCCCCN=C(N)CSSCC(N)=NCCCCCCCCC`, the T/C (dose: 1.0 mg/kg/injection, schedule: Q01DX009 (ip), vehicle: Klucel (hydroxypropylcellulose) (HPC)) is 109 % of control; the T/C (dose: 1.0 mg/kg/injection, schedule: Q04DX002 (ip), vehicle: Klucel (hydroxypropylcellulose) (HPC)) was 101 % of control; the T/C (dose: 2.0 mg/kg/injection, schedule: Q01DX009 (ip), vehicle: Klucel (hydroxypropylcellulose) (HPC)) was 111 % of control; the T/C (dose: 2.0 mg/kg/injection, schedule: Q04DX002 (ip), vehicle: Klucel (hydroxypropylcellulose) (HPC)) is 116 % of control; the T/C (dose: 4.0 mg/kg/injection, schedule: Q01DX009 (ip), vehicle: Klucel (hydroxypropylcellulose) (HPC)) is 109 % of control; the T/C (dose: 4.0 mg/kg/injection, schedule: Q04DX002 (ip), vehicle: Klucel (hydroxypropylcellulose) (HPC)) was 116 % of control.
Take `CC(C)=CCNc1ncnc2c1c(C#N)cn2C1OC(CO)C(O)C1O` (configuration not stated): the T/C runs as follows: (dose: 0.78 mg/kg/injection, schedule: Q01DX009 (ip), vehicle: saline) 95 % of control; (dose: 1.56 mg/kg/injection, schedule: Q01DX005 (ip), vehicle: saline) 106 % of control; (dose: 1.56 mg/kg/injection, schedule: Q01DX009 (ip), vehicle: saline) 95 % of control; (dose: 3.12 mg/kg/injection, schedule: Q01DX009 (ip), vehicle: saline) 97 % of control.
Turning to `O=C1CC2CCC1C2Cl` (configuration not stated), the T/C is 86 % of control (dose: 50.0 mg/kg/injection, schedule: Q04DX003 (ip), vehicle: saline with Tween-80); 97 % of control (dose: 100.0 mg/kg/injection, schedule: Q01DX001 (ip), vehicle: saline with Tween-80); 89 % of control (dose: 200.0 mg/kg/injection, schedule: Q01DX001 (ip), vehicle: saline with Tween-80).
For `O=C1c2ccccc2C(=O)N1N1C(=O)c2ccccc2C1=O`, the T/C runs as follows: under setting [4], 96 % of control; under setting [5], 97 % of control; (dose: 200.0 mg/kg/injection, schedule: Q01DX009 (ip), vehicle: saline with Tween-80) 91 % of control; under setting [6], 100 % of control; (dose: 400.0 mg/kg/injection, schedule: Q01DX009 (ip), vehicle: saline with Tween-80) 96 % of control; under setting [7], 97 % of control.
On to `O=CN/N=C\c1cccc2ccccc12`, for which the T/C under setting [1] is 103 % of control, the T/C under setting [2] was 98 % of control and the T/C under setting [3] was 97 % of control.
As for `Nc1nc(N)c(-c2ccccc2)c(C=O)n1`, the T/C was 110 % of control under setting [5], 117 % of control under setting [6] and 110 % of control under setting [7].
With `N=C(N)SCc1c(-c2ccccc2)oc(-c2ccccc2)c1CSC(=N)N`, the T/C is, setting by setting: (dose: 6.25 mg/kg/injection, schedule: Q01DX009 (ip), vehicle: saline with Tween-80) 103 % of control; (dose: 12.5 mg/kg/injection, schedule: Q01DX009 (ip), vehicle: saline with Tween-80) 101 % of control; (dose: 12.5 mg/kg/injection, schedule: Q04DX003 (ip), vehicle: saline with Tween-80) 97 % of control; (dose: 25.0 mg/kg/injection, schedule: Q04DX003 (ip), vehicle: saline with Tween-80) 101 % of control.
For the compound `CC(=O)OC1CCC(NC(=O)N(CCF)N=O)CC1` (configuration not stated), the T/C (dose: 20.0 mg/kg/injection, schedule: Q01DX001 (ip), vehicle: other) is 298 % of control and the T/C (dose: 40.0 mg/kg/injection, schedule: Q01DX001 (ip), vehicle: other) was 333 % of control.
Regarding `CCCCn1c(=S)[nH]c2ccccc2c1=O`, the T/C is 100 % of control (dose: 100.0 mg/kg/injection, schedule: Q01DX009 (ip), vehicle: Klucel (hydroxypropylcellulose) (HPC)); 98 % of control under setting [8]; 94 % of control (dose: 200.0 mg/kg/injection, schedule: Q01DX009 (ip), vehicle: Klucel (hydroxypropylcellulose) (HPC)); 95 % of control under setting [9]; 96 % of control (dose: 400.0 mg/kg/injection, schedule: Q01DX009 (ip), vehicle: Klucel (hydroxypropylcellulose) (HPC)); 92 % of control under setting [10].
For `COCC(=O)OCCCCCOC(=O)COC`, the T/C reads like this: (dose: 50.0 mg/kg/injection, schedule: Q04DX003 (ip), vehicle: Klucel (hydroxypropylcellulose) (HPC)) 104 % of control; under setting [8], 102 % of control; under setting [9], 96 % of control; under setting [10], 88 % of control.
As to `COc1ccc(NC(=O)Nc2cccc(C(=O)O)c2)c(OC)c1`, the T/C (dose: 100.0 mg/kg/injection, schedule: Q04DX002 (ip), vehicle: Klucel (hydroxypropylcellulose) (HPC)) is 101 % of control; the T/C (dose: 200.0 mg/kg/injection, schedule: Q04DX002 (ip), vehicle: Klucel (hydroxypropylcellulose) (HPC)) was 104 % of control; the T/C (dose: 400.0 mg/kg/injection, schedule: Q04DX002 (ip), vehicle: Klucel (hydroxypropylcellulose) (HPC)) was 97 % of control.
On to `CC1(C)CN1C1=C(Cl)C(=O)C(N2CC2(C)C)=C(Cl)C1=O`, for which the T/C is 92 % of control (dose: 1.56 mg/kg/injection, schedule: Q04DX003 (ip), vehicle: saline); 96 % of control (dose: 3.12 mg/kg/injection, schedule: Q04DX003 (ip), vehicle: saline); 113 % of control (dose: 6.25 mg/kg/injection, schedule: Q04DX003 (ip), vehicle: saline); 101 % of control (dose: 12.5 mg/kg/injection, schedule: Q04DX003 (ip), vehicle: saline); 96 % of control (dose: 25.0 mg/kg/injection, schedule: Q04DX003 (ip), vehicle: saline); 92 % of control (dose: 50.0 mg/kg/injection, schedule: Q04DX003 (ip), vehicle: saline). In addition, the T/C reads like this: (dose: 75.0 mg/kg/injection, schedule: Q04DX003 (ip), vehicle: saline) 104 % of control; (dose: 115.0 mg/kg/injection, schedule: Q04DX003 (ip), vehicle: saline) 104 % of control; (dose: 170.0 mg/kg/injection, schedule: Q04DX003 (ip), vehicle: saline) 108 % of control.
With `O=C(O)C(CNC(=O)C(F)(F)F)Cc1ccc([N+](=O)[O-])cc1` (configuration not stated), the T/C under setting [4] is 120 % of control; the T/C (dose: 100.0 mg/kg/injection, schedule: Q01DX009 (ip), vehicle: saline) was 88 % of control; the T/C (dose: 200.0 mg/kg/injection, schedule: Q01DX009 (ip), vehicle: saline) was 103 % of control.
